According to patent US9676792B2, “Pyrimido-diazepinone compounds and methods of treating disorders” (Dana-Farber Cancer Institute, Inc., priority 2013, dated 2017):
Several values for one entry are separate records, joined by “and”; a condition that tells them apart may be missing. Equal values may be shown once. Read-outs that look alike come from different tables or passages of the source. Each block holds one molecule with its values, some of them ahead of it.

How the values were obtained:
[1] = biological target: T1, EphB2 (Homo sapiens (Human), UniProt P29323); experiment: ActivX kinase profiling; format: binding
T1 sequence (P29323 19-1055): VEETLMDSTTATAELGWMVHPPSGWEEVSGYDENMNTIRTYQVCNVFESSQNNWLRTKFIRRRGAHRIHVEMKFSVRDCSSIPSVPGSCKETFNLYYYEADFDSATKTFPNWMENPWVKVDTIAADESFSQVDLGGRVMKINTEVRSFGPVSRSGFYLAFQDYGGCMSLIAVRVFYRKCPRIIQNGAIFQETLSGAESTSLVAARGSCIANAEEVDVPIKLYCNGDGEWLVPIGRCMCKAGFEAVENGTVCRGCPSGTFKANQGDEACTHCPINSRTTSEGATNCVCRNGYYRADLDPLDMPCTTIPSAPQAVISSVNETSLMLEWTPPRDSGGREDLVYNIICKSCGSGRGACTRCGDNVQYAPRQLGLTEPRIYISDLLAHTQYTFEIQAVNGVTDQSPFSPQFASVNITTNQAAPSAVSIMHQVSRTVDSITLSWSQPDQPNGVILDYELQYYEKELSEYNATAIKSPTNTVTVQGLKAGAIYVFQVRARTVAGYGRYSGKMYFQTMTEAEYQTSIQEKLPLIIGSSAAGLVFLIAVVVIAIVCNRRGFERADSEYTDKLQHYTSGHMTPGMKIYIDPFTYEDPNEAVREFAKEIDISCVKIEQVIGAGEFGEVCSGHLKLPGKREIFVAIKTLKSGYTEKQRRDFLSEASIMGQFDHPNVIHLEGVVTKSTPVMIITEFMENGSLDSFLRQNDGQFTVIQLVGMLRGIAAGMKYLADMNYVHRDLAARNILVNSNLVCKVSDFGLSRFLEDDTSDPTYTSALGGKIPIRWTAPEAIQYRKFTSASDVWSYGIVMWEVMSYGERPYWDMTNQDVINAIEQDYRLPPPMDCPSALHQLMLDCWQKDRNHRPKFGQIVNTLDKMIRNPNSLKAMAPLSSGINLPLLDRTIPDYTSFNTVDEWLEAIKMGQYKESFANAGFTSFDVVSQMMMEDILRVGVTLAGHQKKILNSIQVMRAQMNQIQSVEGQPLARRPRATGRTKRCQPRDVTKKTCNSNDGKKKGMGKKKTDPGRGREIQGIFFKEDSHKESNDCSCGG

[2] = biological target: T2, ERK5 (Homo sapiens (Human), UniProt Q13164); experiment: KiNativ chemical proteomics profiling in HeLa and PC3 cell lysates; format: binding; details: read-out: ERK5 inhibition (KiNativ)
T2 sequence (Q13164 2-816 limits assumed): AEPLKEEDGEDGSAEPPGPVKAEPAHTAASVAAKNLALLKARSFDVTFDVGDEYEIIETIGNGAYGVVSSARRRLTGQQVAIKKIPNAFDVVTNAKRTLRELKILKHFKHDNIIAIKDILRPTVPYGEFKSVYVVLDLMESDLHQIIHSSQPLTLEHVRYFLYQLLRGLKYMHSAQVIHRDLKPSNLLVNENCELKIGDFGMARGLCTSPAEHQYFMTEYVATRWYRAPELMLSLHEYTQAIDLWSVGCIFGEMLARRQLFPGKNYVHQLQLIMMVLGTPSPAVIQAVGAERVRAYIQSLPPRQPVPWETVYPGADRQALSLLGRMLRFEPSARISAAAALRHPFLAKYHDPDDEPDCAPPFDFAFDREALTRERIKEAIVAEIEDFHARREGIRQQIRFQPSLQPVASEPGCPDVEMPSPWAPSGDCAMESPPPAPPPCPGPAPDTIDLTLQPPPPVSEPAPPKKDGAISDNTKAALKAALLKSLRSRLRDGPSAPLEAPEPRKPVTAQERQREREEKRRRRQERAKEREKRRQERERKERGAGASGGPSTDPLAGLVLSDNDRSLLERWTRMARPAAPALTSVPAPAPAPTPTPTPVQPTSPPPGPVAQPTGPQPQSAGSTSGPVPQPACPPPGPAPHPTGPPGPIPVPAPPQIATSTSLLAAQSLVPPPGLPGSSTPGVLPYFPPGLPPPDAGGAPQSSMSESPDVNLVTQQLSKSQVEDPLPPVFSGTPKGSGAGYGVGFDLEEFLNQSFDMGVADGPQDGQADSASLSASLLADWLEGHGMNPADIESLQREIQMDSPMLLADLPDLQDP
Source text: Compared with our previously reported ERK5 inhibitor, XMD8-92 (11, S10=0.012, 5/402), compound 26 represents a further improvement in selectivity. […] Compounds 25 and 26 were also profiled against selected panels of kinases in HeLa and PC3 cell lysates using a chemical proteomics approach, KiNativ.

[3] = test system: panel of 442 kinases; experiment: KINOMEscan selectivity profiling; format: binding; details: 10 μM
Source text: We assessed the selectivity of this scaffold using the KINOMEscan methodology across a near comprehensive panel of 442 kinases. […]

[4] = biological target: LRRK2 (Homo sapiens (Human), UniProt Q5S007); details: cited from earlier work
[5] = biological target: T2, ERK5; details: cited from earlier work
[6] = test system: panel of 442 kinases; details: cited from earlier work
[7] = biological target: EPHB6 (Homo sapiens (Human), UniProt O15197); experiment: Ambit kinase profiling; format: binding
[8] = biological target: EPHA3 (Homo sapiens (Human), UniProt P29320); experiment: Ambit kinase profiling; format: binding
EPHA3, sequence (P29320 21-983): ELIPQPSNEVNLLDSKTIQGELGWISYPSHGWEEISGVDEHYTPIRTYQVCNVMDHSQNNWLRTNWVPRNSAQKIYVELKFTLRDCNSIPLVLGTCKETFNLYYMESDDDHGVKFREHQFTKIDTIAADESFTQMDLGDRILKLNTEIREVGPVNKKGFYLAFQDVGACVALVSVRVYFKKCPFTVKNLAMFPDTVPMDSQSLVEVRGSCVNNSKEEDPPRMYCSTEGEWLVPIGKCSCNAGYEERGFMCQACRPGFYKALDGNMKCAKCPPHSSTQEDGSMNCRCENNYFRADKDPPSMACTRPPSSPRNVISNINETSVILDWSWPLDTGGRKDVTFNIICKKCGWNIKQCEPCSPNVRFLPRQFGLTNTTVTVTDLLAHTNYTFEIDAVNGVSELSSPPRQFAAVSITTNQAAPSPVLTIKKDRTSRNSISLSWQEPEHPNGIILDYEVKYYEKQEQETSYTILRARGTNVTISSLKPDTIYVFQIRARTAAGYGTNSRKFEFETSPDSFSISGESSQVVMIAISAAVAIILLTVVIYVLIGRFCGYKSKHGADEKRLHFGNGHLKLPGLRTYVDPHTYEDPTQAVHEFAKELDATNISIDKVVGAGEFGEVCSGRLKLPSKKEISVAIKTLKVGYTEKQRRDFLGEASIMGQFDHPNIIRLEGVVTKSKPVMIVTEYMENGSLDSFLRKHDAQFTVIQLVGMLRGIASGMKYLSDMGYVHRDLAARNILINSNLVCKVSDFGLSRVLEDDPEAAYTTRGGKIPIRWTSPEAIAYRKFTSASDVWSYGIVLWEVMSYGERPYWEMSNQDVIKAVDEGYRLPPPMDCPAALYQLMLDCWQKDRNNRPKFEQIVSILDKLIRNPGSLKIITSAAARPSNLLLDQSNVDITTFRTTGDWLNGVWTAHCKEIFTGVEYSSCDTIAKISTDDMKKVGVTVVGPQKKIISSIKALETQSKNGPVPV

[9] = biological target: EPHA5 (Homo sapiens (Human), UniProt P54756); experiment: Ambit kinase profiling; format: binding
[10] = biological target: T1, EphB2; experiment: Ambit kinase profiling; format: binding
[11] = biological target: EphB4 (Homo sapiens (Human), UniProt P54760); experiment: Ambit kinase profiling; format: binding
[12] = biological target: EPHB3 (Homo sapiens (Human), UniProt P54753); experiment: Ambit kinase profiling; format: binding
EPHB3, sequence (P54753 34-998): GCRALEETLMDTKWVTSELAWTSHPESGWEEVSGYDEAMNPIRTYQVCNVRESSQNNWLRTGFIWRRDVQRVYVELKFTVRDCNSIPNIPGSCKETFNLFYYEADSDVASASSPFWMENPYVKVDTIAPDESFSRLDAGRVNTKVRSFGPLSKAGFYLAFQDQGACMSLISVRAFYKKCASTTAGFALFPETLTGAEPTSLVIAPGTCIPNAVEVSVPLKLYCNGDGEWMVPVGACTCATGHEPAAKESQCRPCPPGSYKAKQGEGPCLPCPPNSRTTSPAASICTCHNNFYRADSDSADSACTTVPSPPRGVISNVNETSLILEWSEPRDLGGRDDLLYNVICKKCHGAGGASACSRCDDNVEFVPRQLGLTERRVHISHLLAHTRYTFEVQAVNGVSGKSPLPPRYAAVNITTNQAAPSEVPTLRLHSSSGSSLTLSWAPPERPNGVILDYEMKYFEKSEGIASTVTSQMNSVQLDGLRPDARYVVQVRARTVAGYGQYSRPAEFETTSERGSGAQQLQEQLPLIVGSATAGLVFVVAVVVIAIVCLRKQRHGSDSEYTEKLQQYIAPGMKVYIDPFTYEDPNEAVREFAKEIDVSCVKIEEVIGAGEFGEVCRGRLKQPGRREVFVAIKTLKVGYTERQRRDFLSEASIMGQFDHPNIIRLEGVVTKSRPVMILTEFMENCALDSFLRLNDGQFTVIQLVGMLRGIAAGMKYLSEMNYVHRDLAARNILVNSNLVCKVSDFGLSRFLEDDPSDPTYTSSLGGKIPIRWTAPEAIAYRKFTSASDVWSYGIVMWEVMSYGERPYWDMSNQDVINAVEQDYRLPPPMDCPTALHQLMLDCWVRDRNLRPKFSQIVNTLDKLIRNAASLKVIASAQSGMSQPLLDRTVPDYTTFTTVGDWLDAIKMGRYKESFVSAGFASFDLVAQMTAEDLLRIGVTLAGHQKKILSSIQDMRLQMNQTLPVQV

[13] = biological target: EPHB1 (Homo sapiens (Human), UniProt P54762); experiment: Ambit kinase profiling; format: binding
[14] = biological target: EphA1 (Homo sapiens (Human), UniProt P21709); experiment: Ambit kinase profiling; format: binding
[15] = test system: EPHA8; experiment: Ambit kinase profiling; format: binding
[16] = biological target: EPHA4 (Homo sapiens (Human), UniProt P54764); experiment: Ambit kinase profiling; format: binding
[17] = biological target: T3, EphA2 (Homo sapiens (Human), UniProt P29317); experiment: Ambit kinase profiling; format: binding
T3 sequence (P29317 24-976): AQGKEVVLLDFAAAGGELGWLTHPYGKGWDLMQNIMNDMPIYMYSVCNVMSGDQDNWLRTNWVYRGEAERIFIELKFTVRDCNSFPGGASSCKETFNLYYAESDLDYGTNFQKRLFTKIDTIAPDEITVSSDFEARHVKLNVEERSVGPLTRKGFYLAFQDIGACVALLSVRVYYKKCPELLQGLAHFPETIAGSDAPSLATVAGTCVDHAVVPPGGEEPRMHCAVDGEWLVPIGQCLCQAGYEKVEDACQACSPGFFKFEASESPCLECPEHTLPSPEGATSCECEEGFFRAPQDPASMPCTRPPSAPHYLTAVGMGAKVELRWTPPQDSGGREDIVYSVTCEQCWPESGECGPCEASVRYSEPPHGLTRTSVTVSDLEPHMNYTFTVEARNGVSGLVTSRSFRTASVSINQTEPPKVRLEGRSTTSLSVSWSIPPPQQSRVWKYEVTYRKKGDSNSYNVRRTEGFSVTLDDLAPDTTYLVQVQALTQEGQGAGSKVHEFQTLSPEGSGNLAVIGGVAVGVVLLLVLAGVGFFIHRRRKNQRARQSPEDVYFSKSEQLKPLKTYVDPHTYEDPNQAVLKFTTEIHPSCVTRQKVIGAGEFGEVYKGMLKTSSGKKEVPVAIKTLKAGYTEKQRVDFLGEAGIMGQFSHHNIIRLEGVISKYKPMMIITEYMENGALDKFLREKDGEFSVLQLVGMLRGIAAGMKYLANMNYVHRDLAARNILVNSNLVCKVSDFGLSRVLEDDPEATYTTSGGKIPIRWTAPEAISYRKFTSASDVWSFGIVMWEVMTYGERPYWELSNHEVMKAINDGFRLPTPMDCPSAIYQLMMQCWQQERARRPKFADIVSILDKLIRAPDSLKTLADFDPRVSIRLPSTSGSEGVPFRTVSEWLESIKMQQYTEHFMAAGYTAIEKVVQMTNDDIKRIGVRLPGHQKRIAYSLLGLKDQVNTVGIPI

[18] = biological target: EphA7 (Homo sapiens (Human), UniProt Q15375); experiment: Ambit kinase profiling; format: binding
[19] = biological target: T3, EphA2; experiment: In vitro EphA2 kinase assay, Invitrogen EphA2 Z'-LYTE activity assay; format: biochemical
Procedure: Example 13: In Vitro EphA2 Kinase Assay—Invitrogen EphA2 Z′-LYTE Activity Assay
EphA2 kinase assays were performed according to the methods described in Z′-LYTE® Screening Protocol and Assay Conditions at the Life Technologies website (available at http://www.invitrogen.com).

ActivX EphB2 [1]: 5.2
Molecule: COc1cc(N2CCN(C)CC2)ccc1Nc1ncc2c(n1)-c1ccccc1N(C1CCCC1)C(=O)N2 [AB-1-15]

ActivX EphB2 [1]: 7
Molecule: COc1cc(N2CCN(C)CC2)ccc1Nc1ncc2c(n1)-c1ccccc1N(C1CCOCC1)C(=O)N2 [AB-1-16]

ActivX EphB2 [1]: 21.5
Molecule: O=C1Nc2cnc(Nc3ccc(N4CCC(O)CC4)cc3)nc2-c2ccccc2N1C1CCCC1 [AB-1-17]

ActivX EphB2 [1]: 6.8
Molecule: CN1C(=O)N(C2CCCC2)c2ccccc2-c2nc(Nc3ccc(N4CCC(O)CC4)cc3)ncc21 [AB-1-24]

Molecule: COc1cc(C(=O)N2CCC(N3CCN(C)CC3)CC2)ccc1Nc1ncc2c(n1)N(C1CCCC1)c1ccccc1C(=O)N2C [Compound 25]
inhibition at 10 µM [2]: > 90% | KINOMEscan selectivity score S10 [3]: 0.018

Molecule: O=C(Nc1cccnc1)c1cc(-c2ccnc(F)c2)ccc1OCc1ccccc1 [GSK2578215A, 2-arylmethyloxy-5-subtitutent-N-arylbenzamide]
LRRK2 inhibition as reported [4]: potent LRRK2 inhibitors | ERK5 inhibition as reported [5]: do not inhibit ERK5

Molecule: CNc1nc(Nc2ccc(C(=O)N3CCOCC3)cc2OC)ncc1Cl [HG-10-102-01, (4-((5-chloro-4-(methylamino)pyrimidin-2-yl)amino)-3-methoxyphenyl)(morpholino)methanone]
LRRK2 inhibition as reported [4]: potent LRRK2 inhibitors | ERK5 inhibition as reported [5]: do not inhibit ERK5

Molecule: COc1cc(C(=O)N2CCC(N3CCN(C)CC3)CC2)ccc1Nc1ncc2c(n1)N(C)c1ccccc1C(=O)N2C [LRRK2-IN-1]
KINOMEscan selectivity score S10 ([6]; previous LRRK2 inhibitor, 16/442): 0.036

ActivX EphB2 [1]: 97.2
Molecule: O=C1Nc2ccccc2-c2nc(Nc3ccc(N4CCC(O)CC4)cc3)ncc2N1 [XMD16-95]

ActivX EphB2 [1]: 6.1
Molecule: O=C1Nc2cnc(Nc3ccc(N4CCC(O)CC4)cc3)nc2-c2ccccc2N1Cc1ccccc1Cl [XMD16-101-1]

ActivX EphB2 [1]: 0.6
Molecule: O=C1Nc2cnc(Nc3ccc(N4CCC(O)CC4)cc3)nc2-c2ccccc2N1Cc1c(Cl)cccc1Cl [XMD16-101-2]

Ambit EPHB6 [7]: 20 | Ambit EPHA3 [8]: 47 | Ambit EPHA5 [9]: 91 | Ambit EPHB2 [10]: 100 | Ambit EPHB4 [11]: 91 | Ambit EPHB3 [12]: 93 | Ambit EPHB1 [13]: 91 | ActivX EphB2 [1]: 19.8 | Ambit EPHA1 [14]: 69 | Ambit EPHA8 [15]: 92 and 100 | Ambit EPHA4 [16]: 84 | Ambit EPHA2 [17]: 100 | Ambit EPHA7 [18]: 100
Molecule: CN1C(=O)N(C)c2cnc(Nc3ccc(N4CCC(O)CC4)cc3)nc2-c2ccccc21 [XMD16-117]

ActivX EphB2 [1]: −20.9
Molecule: COc1cc(C(=O)N2CCC(N3CCN(C)CC3)CC2)ccc1Nc1ncc2c(n1)-c1ccccc1N(C)C(=O)N2C [XMD16-118]

ActivX EphB2 [1]: 60.1
Molecule: COc1cc(C(=O)N2CCC(N3CCN(C)CC3)CC2)ccc1Nc1ncc2c(n1)-c1ccccc1NC(=O)N2 [XMD16-120]

ActivX EphB2 [1]: 12.2
Molecule: COc1cc(C(=O)N2CCC(N3CCN(C)CC3)CC2)ccc1Nc1ncc2c(n1)-c1ccccc1N(Cc1ccccc1C)C(=O)N2 [XMD16-121]

ActivX EphB2 [1]: −13
Molecule: CN1C(=O)N(Cc2ccccc2Cl)c2ccccc2-c2nc(Nc3ccc(N4CCC(O)CC4)cc3)ncc21 [XMD16-122-1]

ActivX EphB2 [1]: −5.5
Molecule: CN1C(=O)N(Cc2c(Cl)cccc2Cl)c2ccccc2-c2nc(Nc3ccc(N4CCC(O)CC4)cc3)ncc21 [XMD16-122-2]

ActivX EphB2 [1]: 2.5
Molecule: COc1cc(C(=O)N2CCC(N3CCN(C)CC3)CC2)ccc1Nc1ncc2c(n1)-c1ccccc1N(Cc1ccccc1Cl)C(=O)N2C [XMD16-123-1]

Ambit EPHB6 [7]: 78 | Ambit EPHA3 [8]: 77 | Ambit EPHA5 [9]: 90 | Ambit EPHB2 [10]: 100 | Ambit EPHB4 [11]: 99 | Ambit EPHB3 [12]: 93 | Ambit EPHB1 [13]: 84 | ActivX EphB2 [1]: 18.3 | Ambit EPHA1 [14]: 81 | Ambit EPHA8 [15]: 100 | Ambit EPHA4 [16]: 89 | Ambit EPHA2 [17]: 93 | Ambit EPHA7 [18]: 100
Molecule: Cc1ccccc1CN1C(=O)N(C)c2cnc(Nc3ccc(N4CCC(O)CC4)cc3)nc2-c2ccccc21 [XMD16-124]

ActivX EphB2 [1]: 0.9
Molecule: COc1cc(C(=O)N2CCC(N3CCN(C)CC3)CC2)ccc1Nc1ncc2c(n1)-c1ccccc1N(Cc1ccccc1C)C(=O)N2C [XMD16-125]

EphA2 Activity (% Inhibition at 10 micromolar) [19]: −1.1% and −10.5% | ActivX EphB2 [1]: 2
Molecule: COc1cc(C(=O)N2CCC(N3CCN(C)CC3)CC2)ccc1Nc1ncc2c(n1)-c1ccccc1N(C1CCCC1)C(=O)N2 [XMD16-127]

EphA2 Activity (% Inhibition at 10 micromolar) [19]: −5.1% and −8.2% | ActivX EphB2 [1]: 4.5
Molecule: COc1cc(C(=O)N2CCC(N3CCN(C)CC3)CC2)ccc1Nc1ncc2c(n1)-c1ccccc1N(C1CCOCC1)C(=O)N2 [XMD16-128]

Molecule: XMD8-92
KINOMEscan selectivity score S10 ([6]; previously reported, 5/402 kinases): 0.012
